The source made the active and inactive calls. The rule behind the calls is not given here.
How the values were obtained:
[1] = Hepatic blood flow in dog; format: ADME, Canis lupus familiaris
[2] = target: Protein mono-ADP-ribosyltransferase TIPARP (Homo sapiens, UniProt Q7Z3E1); experiment: Inhibition of N-terminal FLAG-tagged human recombinant PARP7 (400 to 657 residues) expressed in Sf9 insect cells by chemiluminescence assay
[3] = Half life in rat; format: ADME; details: in vivo
[4] = Toxicity in CD-1 nude mouse xenografted with human HT55 cells assessed as drug tolerance at 15 mg/kg, po administered twice daily via gavage for 20 days; format: organism-based; details: in vivo, 480 h, time 20 day
[5] = Hepatic blood flow in mouse; format: ADME, organism-based
[6] = target: Protein mono-ADP-ribosyltransferase PARP10 (Homo sapiens, UniProt Q53GL7); experiment: Inhibition of human PARP10 by chemiluminescence assay
[7] = Oral bioavailability in dog; format: ADME, organism-based, Canis lupus familiaris; details: in vivo
COLO 320 = experiment: Cytotoxicity against human COLO 320 cells assessed as reduction in cell growth incubated for 14 days by resazurin dye based assay; format: functional; details: time 14.0 day
HT55 = experiment: Antitumor activity against human HT55 cells xenografted in CD-1 nude mouse assessed as tumor growth inhibition at 20 mg/kg, po, administered twice daily via gavage and measured twice weekly; format: functional, organism-based
HCT-15 = experiment: Cytotoxicity against human HCT-15 cells assessed as reduction in cell growth at 0.01 to 10 uM incubated for 14 days by resazurin dye based assay; format: functional; details: dose 0.01-10 µM, time 14.0 day
[8] = target: Poly [ADP-ribose] polymerase 2 (Homo sapiens, UniProt Q9UGN5); experiment: Inhibition of N-terminal GST-tagged human recombinant PARP2 (2 to 583 residues) expressed in baculovirus infected Sf9 insect cells by chemiluminescence assay
[9] = Oral bioavailability in monkey; format: ADME, organism-based, Macaca mulatta; details: rhesus monkey, in vivo
CYP450 = CYP450 (Homo sapiens, UniProt P04798+P05177+P05181+P08684+P10632+P10635+P11509+P11712+P13584+P20813+P20815+P20853+P24462+P24903+P33260+P33261+P51589+P78329+P98187+Q02928+Q08477+Q16678+Q16696+Q5TCH4+Q6VVX0+Q7Z449+Q8TAV3+Q96SQ9+Q9HB55); experiment: Inhibition of CYP450 (unknown origin); format: ADME, protein assay
[10] = target: Protein mono-ADP-ribosyltransferase PARP11 (Homo sapiens, UniProt Q9NR21); experiment: Inhibition of N-terminal GST-tagged/C-terminal 6xHis-tagged human recombinant PARP11 (8 to 338 residues) expressed in Sf9 insect cells by chemiluminescence assay
[11] = Half life in mouse; format: ADME, organism-based; details: in vivo
[12] = target: T1, Poly [ADP-ribose] polymerase tankyrase-2 (Homo sapiens, UniProt Q9H2K2); experiment: Inhibition of TNKS2 (unknown origin) using biotinylated NAD as substrate assessed as inhibition of autoPARsylation activity incubated for 1 hr by ELISA
T1 sequence (Q9H2K2 whole entry): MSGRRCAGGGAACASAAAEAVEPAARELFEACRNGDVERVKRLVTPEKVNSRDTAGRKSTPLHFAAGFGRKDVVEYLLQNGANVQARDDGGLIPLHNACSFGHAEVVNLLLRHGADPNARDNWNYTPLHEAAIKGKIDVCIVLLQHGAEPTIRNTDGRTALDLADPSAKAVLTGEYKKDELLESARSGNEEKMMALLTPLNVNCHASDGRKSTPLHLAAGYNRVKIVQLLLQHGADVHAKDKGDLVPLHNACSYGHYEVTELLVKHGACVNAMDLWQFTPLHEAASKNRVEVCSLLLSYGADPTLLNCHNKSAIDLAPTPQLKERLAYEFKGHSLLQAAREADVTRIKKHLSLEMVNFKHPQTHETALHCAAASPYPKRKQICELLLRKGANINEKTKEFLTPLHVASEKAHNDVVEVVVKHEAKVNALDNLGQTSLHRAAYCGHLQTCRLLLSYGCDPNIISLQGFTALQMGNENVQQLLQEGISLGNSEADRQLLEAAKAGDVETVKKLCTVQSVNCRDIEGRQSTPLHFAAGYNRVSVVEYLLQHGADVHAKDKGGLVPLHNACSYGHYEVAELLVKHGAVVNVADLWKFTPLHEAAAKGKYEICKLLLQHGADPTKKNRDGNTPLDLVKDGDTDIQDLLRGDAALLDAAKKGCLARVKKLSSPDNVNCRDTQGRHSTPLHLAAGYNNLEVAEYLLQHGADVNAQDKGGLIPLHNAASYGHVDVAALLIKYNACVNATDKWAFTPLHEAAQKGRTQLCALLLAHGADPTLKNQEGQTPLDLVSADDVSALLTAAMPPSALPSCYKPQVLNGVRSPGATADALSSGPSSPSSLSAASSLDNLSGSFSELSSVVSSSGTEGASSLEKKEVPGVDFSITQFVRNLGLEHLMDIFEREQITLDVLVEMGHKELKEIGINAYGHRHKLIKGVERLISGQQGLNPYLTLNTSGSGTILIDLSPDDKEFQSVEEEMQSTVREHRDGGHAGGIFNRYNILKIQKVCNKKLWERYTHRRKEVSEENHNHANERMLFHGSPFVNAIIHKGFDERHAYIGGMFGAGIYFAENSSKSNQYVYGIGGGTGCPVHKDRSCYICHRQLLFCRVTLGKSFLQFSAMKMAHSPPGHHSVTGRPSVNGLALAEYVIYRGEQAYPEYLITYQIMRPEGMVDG

[13] = target: Poly [ADP-ribose] polymerase tankyrase-1 (Homo sapiens) (UniProt O95271); experiment: Inhibition of tankyrase-mediated auto-PARsylation in human DLD-1 cells assessed as increase in tankyrase accumulation incubated for 24 hrs; format: cell-based
[14] = Oral bioavailability in rat; format: ADME, organism-based; details: in vivo
[15] = Unbound fraction in rat plasma; format: ADME, cell-free
[16] = Volume of distribution at steady state in mouse; format: ADME, organism-based; details: in vivo, read-out: Vdss
[17] = Unbound fraction in dog plasma; format: ADME, cell-free, Canis lupus familiaris
[18] = Hepatic blood flow in monkey; format: ADME, Macaca mulatta; details: rhesus monkey
[19] = target: Protein mono-ADP-ribosyltransferase PARP8 (Homo sapiens, UniProt Q8N3A8); experiment: Inhibition of human PARP8 by chemiluminescence assay
[20] = Unbound fraction in human plasma; format: ADME, cell-free
[21] = In vivo inhibition of Wnt pathway in Hsd athymic nude mouse xenografted with human DLD1 cells assessed as increase in tankyrase protein level in tumor at 10 to 30 mg/kg, po administered as single dose and measured after 2 to 8 hrs; format: functional, organism-based; details: DLD-1, dose 10-30 mg/kg, time 2-8 hrs
[22] = Oral bioavailability in mouse; format: ADME, organism-based; details: in vivo
[23] = Half life in monkey; format: ADME, Macaca mulatta; details: rhesus monkey, in vivo
[24] = Hepatic blood flow in human; format: ADME
[25] = Half life in human; format: ADME
[26] = target: Poly [ADP-ribose] polymerase 1 (Homo sapiens, UniProt P09874); experiment: Inhibition of N-terminal GST-tagged human recombinant PARP1 (2 to 1014 residues) expressed in Sf9 insect cells by chemiluminescence assay
[27] = Unbound fraction in monkey plasma; format: ADME, cell-free, Macaca mulatta; details: rhesus monkey

Chain of Protein mono-ADP-ribosyltransferase PARP11 (Q9NR21 whole entry, the tested form may be a part): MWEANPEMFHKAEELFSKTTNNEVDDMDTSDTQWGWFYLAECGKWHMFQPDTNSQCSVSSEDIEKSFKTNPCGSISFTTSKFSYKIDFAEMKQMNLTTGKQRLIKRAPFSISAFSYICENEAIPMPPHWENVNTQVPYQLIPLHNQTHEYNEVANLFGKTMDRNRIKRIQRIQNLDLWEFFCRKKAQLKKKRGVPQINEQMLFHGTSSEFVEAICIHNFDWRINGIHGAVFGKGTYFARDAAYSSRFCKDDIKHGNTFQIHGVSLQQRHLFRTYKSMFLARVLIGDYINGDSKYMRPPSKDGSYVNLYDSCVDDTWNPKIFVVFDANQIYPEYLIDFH
Chain of Protein mono-ADP-ribosyltransferase TIPARP (Q7Z3E1 whole entry, the tested form may be a part): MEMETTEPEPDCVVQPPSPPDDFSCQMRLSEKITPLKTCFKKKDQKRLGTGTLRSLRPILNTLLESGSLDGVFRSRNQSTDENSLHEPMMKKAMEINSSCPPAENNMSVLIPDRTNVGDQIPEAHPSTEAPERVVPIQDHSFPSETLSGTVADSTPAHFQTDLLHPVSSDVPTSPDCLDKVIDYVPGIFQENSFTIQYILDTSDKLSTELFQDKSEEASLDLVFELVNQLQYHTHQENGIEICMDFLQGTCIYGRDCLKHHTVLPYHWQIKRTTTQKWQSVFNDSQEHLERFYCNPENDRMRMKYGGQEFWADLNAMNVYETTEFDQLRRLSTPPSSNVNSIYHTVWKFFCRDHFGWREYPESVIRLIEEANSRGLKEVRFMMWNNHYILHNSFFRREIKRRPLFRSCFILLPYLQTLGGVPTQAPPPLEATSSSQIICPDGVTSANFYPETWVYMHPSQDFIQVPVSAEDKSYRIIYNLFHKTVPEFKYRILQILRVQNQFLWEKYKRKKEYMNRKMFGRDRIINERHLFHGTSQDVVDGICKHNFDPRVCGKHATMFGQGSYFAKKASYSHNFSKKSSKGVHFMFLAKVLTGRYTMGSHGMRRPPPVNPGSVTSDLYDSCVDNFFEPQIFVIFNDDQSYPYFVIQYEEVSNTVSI
Chain of Poly [ADP-ribose] polymerase 2 (Q9UGN5 whole entry, the tested form may be a part): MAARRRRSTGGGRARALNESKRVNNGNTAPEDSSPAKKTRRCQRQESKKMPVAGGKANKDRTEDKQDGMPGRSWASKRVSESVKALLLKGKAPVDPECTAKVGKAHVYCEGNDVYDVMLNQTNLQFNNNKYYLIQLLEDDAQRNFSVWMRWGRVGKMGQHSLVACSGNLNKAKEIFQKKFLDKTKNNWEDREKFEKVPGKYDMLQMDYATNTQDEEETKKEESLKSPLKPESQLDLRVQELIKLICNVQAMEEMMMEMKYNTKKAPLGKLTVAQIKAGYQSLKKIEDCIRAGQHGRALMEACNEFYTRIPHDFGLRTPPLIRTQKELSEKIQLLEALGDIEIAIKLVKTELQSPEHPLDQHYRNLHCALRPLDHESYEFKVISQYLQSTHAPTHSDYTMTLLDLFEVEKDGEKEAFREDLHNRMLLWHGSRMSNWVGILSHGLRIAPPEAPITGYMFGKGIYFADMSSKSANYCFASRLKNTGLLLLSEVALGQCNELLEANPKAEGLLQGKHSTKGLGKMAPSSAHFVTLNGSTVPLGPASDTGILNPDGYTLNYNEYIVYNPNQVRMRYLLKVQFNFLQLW
Chain of Protein mono-ADP-ribosyltransferase PARP8 (Q8N3A8 whole entry): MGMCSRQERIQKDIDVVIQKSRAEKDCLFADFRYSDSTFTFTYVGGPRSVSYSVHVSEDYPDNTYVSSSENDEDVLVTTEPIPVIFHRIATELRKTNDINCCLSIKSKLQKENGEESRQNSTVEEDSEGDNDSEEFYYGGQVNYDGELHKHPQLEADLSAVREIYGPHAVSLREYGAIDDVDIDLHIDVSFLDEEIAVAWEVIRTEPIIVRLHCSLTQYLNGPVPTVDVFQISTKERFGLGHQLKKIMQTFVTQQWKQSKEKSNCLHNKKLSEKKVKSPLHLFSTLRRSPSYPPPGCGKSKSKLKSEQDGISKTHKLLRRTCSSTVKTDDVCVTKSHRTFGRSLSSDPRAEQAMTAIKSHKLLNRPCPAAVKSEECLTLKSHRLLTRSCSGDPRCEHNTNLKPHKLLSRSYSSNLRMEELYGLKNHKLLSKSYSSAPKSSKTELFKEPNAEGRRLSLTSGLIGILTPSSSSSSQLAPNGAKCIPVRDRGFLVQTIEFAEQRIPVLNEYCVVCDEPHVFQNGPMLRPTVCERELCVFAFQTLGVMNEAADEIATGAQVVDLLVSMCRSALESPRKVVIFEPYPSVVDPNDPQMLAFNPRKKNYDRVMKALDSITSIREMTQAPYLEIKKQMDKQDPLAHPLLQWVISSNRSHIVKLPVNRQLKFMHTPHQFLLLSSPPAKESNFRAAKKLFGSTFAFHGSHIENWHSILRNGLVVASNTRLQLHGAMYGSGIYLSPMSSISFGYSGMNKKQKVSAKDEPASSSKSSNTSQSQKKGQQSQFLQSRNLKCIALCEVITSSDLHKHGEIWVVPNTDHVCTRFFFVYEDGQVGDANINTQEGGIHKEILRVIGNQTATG
Chain of Poly [ADP-ribose] polymerase 1 (P09874 whole entry, the tested form may be a part): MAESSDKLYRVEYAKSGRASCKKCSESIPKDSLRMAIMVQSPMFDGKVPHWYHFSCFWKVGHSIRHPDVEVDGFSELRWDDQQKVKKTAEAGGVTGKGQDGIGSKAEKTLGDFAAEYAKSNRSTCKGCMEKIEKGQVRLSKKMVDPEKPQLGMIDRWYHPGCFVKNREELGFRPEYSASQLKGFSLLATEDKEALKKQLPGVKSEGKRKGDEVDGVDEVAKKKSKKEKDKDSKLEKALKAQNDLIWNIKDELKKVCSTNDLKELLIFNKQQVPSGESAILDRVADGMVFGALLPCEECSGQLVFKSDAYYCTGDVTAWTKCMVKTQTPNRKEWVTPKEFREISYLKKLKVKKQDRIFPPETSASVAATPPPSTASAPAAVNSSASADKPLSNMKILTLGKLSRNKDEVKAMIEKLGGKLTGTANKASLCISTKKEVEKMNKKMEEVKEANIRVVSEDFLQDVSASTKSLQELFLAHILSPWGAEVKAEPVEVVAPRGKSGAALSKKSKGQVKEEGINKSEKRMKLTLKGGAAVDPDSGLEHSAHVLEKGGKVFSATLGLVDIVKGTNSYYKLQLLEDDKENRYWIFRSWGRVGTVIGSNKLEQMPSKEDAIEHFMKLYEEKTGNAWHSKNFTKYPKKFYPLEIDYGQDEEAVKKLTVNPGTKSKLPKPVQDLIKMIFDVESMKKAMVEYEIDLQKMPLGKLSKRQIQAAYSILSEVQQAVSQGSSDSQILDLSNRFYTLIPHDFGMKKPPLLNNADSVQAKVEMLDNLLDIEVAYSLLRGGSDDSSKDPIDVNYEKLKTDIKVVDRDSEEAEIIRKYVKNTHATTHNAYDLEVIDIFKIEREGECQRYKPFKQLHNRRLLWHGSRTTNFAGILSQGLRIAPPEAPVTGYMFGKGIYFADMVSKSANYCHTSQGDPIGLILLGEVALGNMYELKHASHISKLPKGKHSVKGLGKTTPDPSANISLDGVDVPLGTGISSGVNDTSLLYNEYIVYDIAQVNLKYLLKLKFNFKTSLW
Chain of Protein mono-ADP-ribosyltransferase PARP10 (Q53GL7 whole entry): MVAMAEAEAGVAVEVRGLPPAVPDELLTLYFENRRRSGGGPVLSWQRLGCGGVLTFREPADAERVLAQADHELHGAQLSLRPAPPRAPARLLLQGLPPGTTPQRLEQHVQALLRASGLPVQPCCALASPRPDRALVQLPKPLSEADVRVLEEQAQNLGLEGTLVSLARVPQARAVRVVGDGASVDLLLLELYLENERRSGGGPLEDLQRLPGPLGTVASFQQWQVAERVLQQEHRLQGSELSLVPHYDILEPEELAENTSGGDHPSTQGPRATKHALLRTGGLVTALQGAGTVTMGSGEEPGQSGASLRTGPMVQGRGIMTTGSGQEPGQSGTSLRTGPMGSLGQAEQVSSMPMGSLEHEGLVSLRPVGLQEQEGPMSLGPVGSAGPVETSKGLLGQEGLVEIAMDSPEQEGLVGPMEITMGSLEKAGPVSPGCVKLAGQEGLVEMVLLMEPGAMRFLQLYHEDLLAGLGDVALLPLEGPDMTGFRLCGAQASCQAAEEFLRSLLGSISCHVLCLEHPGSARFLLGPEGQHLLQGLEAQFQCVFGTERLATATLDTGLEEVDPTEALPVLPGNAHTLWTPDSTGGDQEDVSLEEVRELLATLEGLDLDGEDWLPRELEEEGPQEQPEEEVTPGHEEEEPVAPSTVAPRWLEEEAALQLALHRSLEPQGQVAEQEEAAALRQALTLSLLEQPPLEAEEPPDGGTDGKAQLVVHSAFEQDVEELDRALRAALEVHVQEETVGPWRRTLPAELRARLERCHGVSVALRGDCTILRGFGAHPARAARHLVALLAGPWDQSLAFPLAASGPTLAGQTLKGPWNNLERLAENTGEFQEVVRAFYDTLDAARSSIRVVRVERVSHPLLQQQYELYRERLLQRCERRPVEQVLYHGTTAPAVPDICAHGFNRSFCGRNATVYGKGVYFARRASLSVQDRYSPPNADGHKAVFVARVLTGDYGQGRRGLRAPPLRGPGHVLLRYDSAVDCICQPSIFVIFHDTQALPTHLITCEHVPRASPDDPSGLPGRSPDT

In the case of `Cc1ccc2c(=O)[nH]c(-c3ccc(C(C)(C)O)cc3)cn12`, the QH [1] is reported as 130%, the IC50 [2] is reported as 330 nM and the half-life [3] is reported as 20.4 min. For the same compound, the Activity [4] was “Non-Toxic”, the QH [5] was 50% and the IC50 [6] was 2900 nM. The bioavailability [7] was 37%, the Activity (COLO 320) was “Dose-Dependent Effect” and the Activity (HT55) was “Active”. The Activity (HCT-15) was “inactive”, the IC50 [8] was 200 nM and the bioavailability [9] was 6.7%. For the same compound, the IC50 (CYP450) was > 50000 nM, the IC50 [10] was 67 nM and the half-life [11] was 58.6 min. The IC50 [12] was 0.9 nM, the inhibition [13] was “Active” and the bioavailability [14] was 41%. It also gave a fraction unbound [15] of 0.13, a Vd [16] of 2.43 L/kg and a fraction unbound [17] of 0.14. For the same compound, the QH [18] was 99%, the IC50 [19] was 1300 nM and the fraction unbound [20] was 0.096. For the same compound, the inhibition [21] was “Active”, the bioavailability [22] was 77% and the half-life [23] was 60.6 min. It also gave a QH [24] of 17%, a half-life [25] of 414 min and an IC50 [26] of 140 nM. For the same compound, the fraction unbound [27] was 0.21.
